In brackets after ≈: the same amount, converted by molar mass.
Experiments:
Assay type in all cases: cell-based, human
THP-1 cells [1] = experiment: MTT cell viability assay, Example 3; settings: for concentration at which cell death / inhibition was observed in the MTT assay / MIC MTT: THP-1, approximately 48 hours; for concentration at which cell death / inhibition was observed in the MTT assay: text of Example 3; for MIC MTT: visual
[2] = tested on: THP-1 Acute myeloid leukemia cells; experiment: Chemotherapeutic Sensitivity Assay (Gus and/or LacZ output), batch infection with GLV-1h68, Example 3; settings: for LacZ/infection inhibition / MIC VV: THP-1, GLV-1h68 MOI 10, 24 hours, visual; for LacZ/infection inhibition: β-galactosidase output; for MIC VV: β-glucuronidase (Gus) output
HL-60 cells [3] = experiment: Cell viability and growth assay (MTT reduction), Example 2; settings: HL-60, approximately 48 hours, visual assessment
KG1a cells [4] = tested on: KG1a cells
THP-1 cells [5] = tested on: THP-1 cells
KG1a cells [6] = experiment: Cell viability and growth assay (MTT reduction), Example 2; settings: approximately 48 hours, visual assessment
THP-1 cells [7] = experiment: as above; settings: THP-1, approximately 48 hours, visual assessment
HL-60 cells [8] = tested on: HL-60 cells
[9] = THP-1, GLV-1h68, 24 hours, text of Example 3
[10] = THP-1, maximal concentration used
[11] = THP-1, next lowest concentration

| SMILES | concentration at which cell death / inhibition was observed in the MTT assay (THP-1 cells [1]) | MIC MTT (THP-1 cells [1]) [µM] | concentration at which inhibition of β-glucuronidase expression was observed [2, 9] | LacZ/infection inhibition [2] [µM] | MIC VV [2] [µM] | also measured |
| --- | --- | --- | --- | --- | --- | --- |
| CC(=O)O[C@@]12CO[C@@H]1C[C@H](O)[C@@]1(C)C(=O)[C@H](O)C3=C(C)[C@@H](OC(=O)[C@H](O)[C@@H](NC(=O)OC(C)(C)C)c4ccccc4)C[C@@](O)([C@@H](OC(=O)c4ccccc4)[C@H]21)C3(C)C [Docetaxel, docetaxel] | 46 µM | 46 (≈ 37.2 µg/mL) | 460 µM | >46 | 460 (≈ 372 µg/mL) | concentration at which β-galactosidase expression was inhibited ([2]; THP-1, Example 3): ≥ 46 µM |
| COc1cccc2c1C(=O)c1c(O)c3c(c(O)c1C2=O)C[C@@](O)(C(C)=O)C[C@@H]3O[C@H]1C[C@H](N)[C@H](O)[C@H](C)O1 [Daunorubicin, daunorubicin] | ≥ 10 µM | 0.01 (≈ 0.00528 µg/mL) |  | >0.1 | 0.01 (≈ 0.00528 µg/mL) | concentration at which some inhibition of β-galactosidase expression was seen ([2]; THP-1, Example 3): greater than 100 nM; concentration at which dose-dependent inhibition of β-glucuronidase expression starts [2, 9]: ≥ 10 nM |
| N.N.[Cl][Pt][Cl] [Cisplatin, cisplatin] |  | 33 |  |  |  | MIC MTT, qualifier in words (THP-1 cells [1]; THP-1, line below the MIC MTT value): partial; MTT assay observation (THP-1 cells [1]; [10]): cell death; MTT assay observation (THP-1 cells [1]; [11]): only slight cell death |
| O=P1(N(CCCl)CCCl)NCCCO1 (stereo not drawn) [Cyclophosphamide, cyclophosphamide] | above 100 μM | >100 | above 100 μM |  | >100 | concentration at which β-galactosidase expression was inhibited ([2]; THP-1, Example 3): above 100 μM |
| O=c1[nH]cc(F)c(=O)[nH]1 [5-Fluorouracil, 5-fluorouracil] |  | 1.9 (≈ 0.247 µg/mL) |  |  | 1.9 (≈ 0.247 µg/mL) | MTT assay observation (THP-1 cells [1]; [10]): cell death; MTT assay observation (THP-1 cells [1]; [11]): only slight cell death; concentration giving very pale blue/pink color in the β-glucuronidase assay, indicating partial cell killing ([2]; THP-1, highest drug concentration tested): 1.9 µM |
| COc1cc([C@@H]2c3cc4c(cc3[C@@H](O[C@@H]3O[C@@H]5CO[C@@H](C)O[C@H]5[C@H](O)[C@H]3O)[C@H]3COC(=O)[C@H]23)OCO4)cc(OC)c1O [Etopocide, etoposide] |  | 5 (≈ 2.94 µg/mL) |  | >50 | 5 (≈ 2.94 µg/mL) |  |
| Nc1ccn([C@@H]2O[C@H](CO)[C@@H](O)[C@@H]2O)c(=O)n1 [Ara-C, cytosine arabinoside] | ≥ 1 µM | 1 (≈ 0.243 µg/mL) | ≥ 1 µM | >1000 | 1 (≈ 0.243 µg/mL) | concentration at which reduction of MTT was abrogated (HL-60 cells [3]): ≥ 1 µM; β-galactosidase expression ([2]; THP-1, all concentrations less than the maximal concentration of the drug tested): unaffected; concentration at which limited inhibition of β-galactosidase expression was seen ([2]; THP-1, highest concentration of the drug tested): 1 mM; β-galactosidase expression (P7.5k early/late promoter) in presence of Ara-C (KG1a cells [4]; GLV-1h68 MOI 10, 1 nM-1 mM Ara-C, 24 hours, X-gal, visual assessment): equally robust in the presence or absence of Ara-C; effect on β-glucuronidase expression (P11k late promoter) (KG1a cells [4]; GLV-1h68 MOI 10, 1 nM-1 mM Ara-C, 24 hours, X-gluc, visual assessment): dose-dependent inhibition; concentration at which late viral transcription, as measured by β-glucuronidase expression, was abrogated (KG1a cells [4]; GLV-1h68 MOI 10, 24 hours, 'as low as'): ≥ 100 nM; β-galactosidase expression (P7.5k early/late promoter) in presence of Ara-C (THP-1 cells [5]; THP-1, GLV-1h68 MOI 10, 1 nM-1 mM Ara-C, 24 hours, X-gal, visual assessment): equally robust in the presence or absence of Ara-C; effect on β-glucuronidase expression (P11k late promoter) (THP-1 cells [5]; THP-1, GLV-1h68 MOI 10, 1 nM-1 mM Ara-C, 24 hours, X-gluc, visual assessment): dose-dependent inhibition; concentration at which β-glucuronidase expression was undetectable by eye (complete abrogation of viral late transcription) (THP-1 cells [5]; THP-1, GLV-1h68 MOI 10, 24 hours, printed as 1 mM to 1 μM): ≥ 1 µM; concentration at which reduction of MTT was abrogated (KG1a cells [6]): ≥ 100 nM; concentration at which reduction of MTT was abrogated (THP-1 cells [7]): ≥ 1 µM; β-galactosidase expression (P7.5k early/late promoter) in presence of Ara-C (HL-60 cells [8]; HL-60, GLV-1h68 MOI 10, 1 nM-1 mM Ara-C, 24 hours, X-gal, visual assessment): equally robust in the presence or absence of Ara-C; effect on β-glucuronidase expression (P11k late promoter) (HL-60 cells [8]; HL-60, GLV-1h68 MOI 10, 1 nM-1 mM Ara-C, 24 hours, X-gluc, visual assessment): dose-dependent inhibition; concentration at which β-glucuronidase expression was undetectable by eye (complete abrogation of viral late transcription) (HL-60 cells [8]; HL-60, GLV-1h68 MOI 10, 24 hours, printed as 1 mM to 1 μM): ≥ 1 µM |

— patent US20090081639A1, “Assay for sensitivity to chemotherapeutic agents” (priority 2007, published 2009)
